What all share (assay type): in vivo, human
Data set [1] is described as follows: Phase 1 safety and tolerability. Here is the method:
A 4-part, Phase 1 randomized, double-blind, placebo-controlled, first-in-human study was performed to determine the safety, tolerability, PK, and PD of single ascending doses (SADs; part 1) and multiple ascending doses (MADs; part 2) of Compound A HBr in healthy participants. The study also assessed whether there were sex (part 3) and age-related (part 4) effects on the PK of a single dose of Compound A HBr. The study was approved by the local independent ethics committee; the BEBO foundation in Assen, Netherlands; and the Central Committee on Research Involving Human Subjects in The Hague, Netherlands; and conducted according to the provisions of the Declaration of Helsinki. Written informed consent was obtained from each study participant before conducting any protocol-related procedures.
Safety measurements (adverse events [AE], safety laboratory, vital signs and electrocardiograms, physical examinations) were summarized and/or listed.

Data set [2] has as its system plasma aldosterone (PAC). Nature of the data set: Phase 1 part 2 multiple ascending dose: pharmacodynamics, ACTH challenge. The following applies: for return of baseline aldosterone levels by: multiple 120-mg doses; for Aldosterone AUC0-24, mean (SD): Day 7. Here is the method:
In part 2, Compound A HBr or placebo was administered to a total of 36 healthy Caucasian men aged 19 to 54 years (inclusive) in 3 cohorts of 12 participants each. In each cohort, 9 participants were randomized to receive multiple doses of Compound A HBr and 3 participants were randomized to receive matching placebo. The participants received daily doses in the fed state from Day 1 to Day 7. The doses were administered in an ascending order per cohort. Progression to the next dose level and dose selection were based on available data from part 1 and the preceding dose cohort in part 2 (safety, tolerability, and PD data [up to 48 hours post-final dose] and available PK data [up to 24 hours post-final dose] from a minimum of 10 participants [Compound A HBr n≥7] in the preceding dose cohort). The final dose levels of Compound A HBr for part 2 were 40, 120, and 360 mg. An ACTH challenge test was performed on Day −2 and on Day 6 to evaluate Compound A HBr selectivity for aldosterone synthesis. Plasma concentrations of aldosterone and 11-deoxycortisol and serum concentrations of cortisol and 11-DOC were measured pre-ACTH dose and 30 and 60 minutes post-ACTH dose on Day −2 and Day 6.
(§1) Plasma concentrations of aldosterone, 11-deoxycortisol, and ACTH; renin activity; renin concentration; and serum concentrations of cortisol and 11-DOC were measured in all parts of the study. The amount of aldosterone, cortisol, sodium, and potassium excreted and the urinary log10 (10×Na^+/K^+) ratio were listed per collection interval.
(§2) PD parameters were derived by non-compartmental analysis using WinNonlin® Professional (version 6.3). AUC0-24 was determined where possible for plasma aldosterone and serum cortisol.
(§3) Log-transformed change from baseline (Day 1, pre-dose) at 24 hours and log-transformed change from baseline at 22 hours on Day 1 (where baseline is Day −1, 22 hours) in plasma aldosterone and serum cortisol were analyzed using a linear model with dose group (each Compound A HBr dose and pooled placebo) as a fixed effect with the corresponding Day 1 pre-dose as a covariate. The LSM difference between each Compound A HBr dose compared with placebo was obtained from the model with the 90% CI and then back-transformed (exponentiated) to obtain estimates of the ratio of adjusted geometric means and 90% CI. Log-transformed change from baseline (time-matched) from 0 to 24 hours post-dose in plasma aldosterone and serum cortisol as repeated measures was analyzed using a linear mixed model with dose group (each active Compound A HBr dose and pooled placebo) as fixed effects, corresponding time-matched values on Day −1 as covariate, and unstructured covariance. The pre-dose time point on Day 1 was used as the 24-hour time point on Day −1. The LSM difference between each Compound A HBr dose compared with placebo was obtained from the model together with the 90% CI, and then back-transformed to obtain estimates of the ratio of adjusted geometric means and 90% CIs. The calculated AUC parameters were analyzed using a linear model. The log-transformed parameter of interest was the dependent variable with dose group (each Compound A HBr dose and pooled placebo) as the fixed effect and log-transformed AUC0-24 on Day −1 as the covariate. The LSM difference between each Compound A HBr dose compared with placebo and 90% CIs was calculated and then back-transformed to obtain estimates of the ratio of adjusted geometric means and 90% CIs.

For data set [3], the system named is plasma aldosterone (PAC). Nature of the data set: Phase 1 part 1 single ascending dose: pharmacodynamics. The following applies: for return of baseline aldosterone levels by: single 100-mg doses; for effect on cortisol: single ascending doses; for PAC reduction compared with placebo: 24 hours post-dose; for Aldosterone AUC0-24, mean (SD): Day 1. Here is the method:
In part 1, Compound A HBr or placebo was administered to 64 healthy Caucasian men aged 18 to 55 years (inclusive) in 8 cohorts of 8 participants each. In each cohort, 6 participants were randomized to receive a single dose of Compound A HBr and 2 participants were randomized to receive matching placebo. All cohorts included 2 sentinel participants of whom 1 received Compound A HBr and 1 received matching placebo. The remaining 6 participants, of whom 5 received Compound A HBr and 1 received placebo, were dosed ≥24 hours following the sentinel participants. The dosing cohorts were 5, 10, 20, 50, 100, 200, 400, and 800 mg. Doses were administered in an ascending order per cohort, with a minimum 10-day interval between consecutive dose levels. Participants received a single dose of Compound A HBr or placebo in the fasted state.
as §1, §2, §3

Take `CC(=O)N[C@H]1CC[C@H](NC(=O)CN2CCN(c3nncc(-c4ccc(C)cc4)n3)CC2)CC1` [Compound A]: the tolerability result in data set [1] (single doses up to 800 mg fasting, once-daily up to 360 mg fed, healthy men) is on record as “well-tolerated”. Also, the “accumulation of serum 11-DOC” value is reported as “did not exceed the normal range” in data set [2] (40- and 120-mg daily cohorts); “much more dramatic increase in 11-DOC” in data set [2] (360-mg daily dose cohort). In data set [2] (MAD, doses of 40, 120, and 360 mg), the “maximum PAC suppression maintained for” value is reported as “approximately 12 hours”. Moreover, the “return of baseline aldosterone levels at” value in data set [2] (daily dosing) is about 16 h. Further, the “return of baseline aldosterone levels by” value in data set [2] and in data set [3] was at most 16 h each time. Also, the “serum 11-DOC, plasma renin activity, and potassium concentrations” value in data set [2] (once-daily administration, all dose levels compared to placebo) is “appeared to increase”. The “rise in serum potassium” value in data set [2] (within 2 days of initiation, all 3 dose cohorts (part 2)) was “approximately 0.5 mmol/L”. In addition, the “urinary log10 (10×Na+/K+) ratio” value in data set [3] (SAD, doses of ≥10 mg) is “produced an increase”. Further, the “PAC (AUC0-24) reduced by” value in data set [3] (single 100- to 200-mg doses) was “up to 40%”; in data set [3] (single 400- to 800-mg doses), “up to 70%”. Moreover, in data set [3], the effect on cortisol entry is “no meaningful effect on serum cortisol levels”.

For `CC(=O)N[C@H]1CC[C@H](NC(=O)CN2CCN(c3nncc(-c4ccc(C)cc4)n3)CC2)CC1` [Compound A HBr], the “dizziness (of mild intensity), participants” value in data set [1] (across all cohorts) was 9 (10.3%). Also, the “serious AEs” value in data set [1] (healthy participants, all parts) is recorded as “No serious AEs”. The “Aldosterone AUC0-24, mean (SD)” value in data set [2] (40 mg once daily) is recorded as 1343 (702) ng × h/dL; in data set [2] (120 mg once daily), 1013 (312) ng × h/dL; in data set [2] (360 mg once daily), 771 (440) ng × h/dL; in data set [3] (single 5 mg) it was 1436 (531) ng × h/dL; in data set [3] (single 10 mg), 1075 (418) ng × h/dL; in data set [3] (single 20 mg), 911 (286) ng × h/dL. In addition, the “Aldosterone AUC0-24, mean (SD)” value is recorded as 731 (247) ng × h/dL in data set [3] (single 50 mg); 562 (279) ng × h/dL in data set [3] (single 100 mg); 587 (115) ng × h/dL in data set [3] (single 200 mg); 403 (122) ng × h/dL in data set [3] (single 400 mg); 347 (108) ng × h/dL in data set [3] (single 800 mg). For the same molecule, the “11-DOC and 11-deoxycortisol concentrations after ACTH stimulation” value in data set [2] (360 mg, Day 6, compared to placebo) was “trend in increase”. Also, the “reduction in AUC0-24 for PAC compared to placebo” value in data set [2] (360 mg, after seven once-daily doses) is reported as “approximately −50%”. For the same molecule, the ACTH-stimulated cortisol response result in data set [2] (Day 6, all multiple dose levels) is “no effect on the cortisol response”. Moreover, the ACTH-stimulated aldosterone response result in data set [2] (Day 6, all multiple dose levels, compared to placebo) was “completely blunted”. The “changes in serum cortisol and plasma 11-deoxycortisol concentrations” value in data set [2] (during multiple dosing) is reported as “No relevant changes from baseline”. Moreover, the “return of baseline aldosterone levels by” value in data set [2] and in data set [3] was at most 16 h in each case. Further, the “PAC reduction compared with placebo” value in data set [3] (single doses of 100 and 200 mg) is reported as “approximately −40%”; in data set [3] (single doses of 400 and 800 mg), “approximately −70%”. Also, the “PAC returned to values near baseline within” value in data set [3] (single 5-50 mg) is at most 24 hours post-dose. Further, the “duration of PAC reduction” value in data set [3] (single 100-800 mg) is given as “sustained until 24 hours post-dose”. The effect on cortisol result in data set [3] is “no dose-related effect on cortisol”. In addition, the “decrease of AUC0-24 for PAC vs placebo” value in data set [3] (single doses ranging from 10 to 800 mg) was −36% to −77.

The values above are taken from US20250099475A1, “METHODS OF TREATING HYPERTENSION BY PERIODIC SUPPRESSION OF ALDOSTERONE SYNTHASE” (Mineralys Therapeutics, Inc., priority 2022, published 2025).
